Laboratory results as given in article PMC4886613 (Journal of natural products, 2009).

What was measured:
Type in all cases: cell-based
[1] = test system: culture of Leishmania donovani; assay: in vitro antileishmanial activity; conditions: in words
Plasmodium falciparum = assay: antimalarial activity; conditions: in words; clone not specified
[2] = test system: Candida albicans ATCC 90028; assay: in vitro antifungal activity, Candida albicans; conditions: ATCC90028, read-out: antifungal C. albicans IC50
[3] = test system: Plasmodium falciparum (D6 clone); assay: in vitro antimalarial activity, D6 clone; conditions: D6, read-out: antimalarial P. falciparum D6 (IC50)
P. falciparum (W2 clone) = assay: microbe, parasite or virus in culture; conditions: Plasmodium falciparum, W2, read-out: antimalarial P. falciparum W2 (IC50)

Structure (SMILES) | antileishmanial activity [1] | antimalarial activities (Plasmodium falciparum) | other results
CCCCCc1cc(O)c2c(c1OC(C)=O)OC(C)(CCC=C(C)C)C=C2 (racemic) [Compound 1, (±)-4-acetoxycannabichromene] | moderate antileishmanial activity | mild antimalarial activities | 
C=C(C)C(O)CCC1(C)C=Cc2c(O)cc(CCCCC)cc2O1 (racemic) [Compound 2, (±)-3″-hydroxy-Δ^(4″,5″)-cannabichromene] | moderate antileishmanial activity |  | 
CCCCCc1cc(O)c(C/C=C(\C)CCC=C(C)C)c(OC(C)=O)c1O [Compound 5, 5-acetyl-4-hydroxycannabigerol] | strong antileishmanial activity | mild antimalarial activities | 
CCCCCc1c(C/C=C(\C)CCC=C(C)C)c(O)cc(O)c1OC(C)=O [Compound 6, 4-acetoxy-2-geranyl-5-hydroxy-3-n-pentylphenol] | moderate antileishmanial activity |  | 
C[C@@H]1[C@H](O)[C@@H](C)/C=C/C=C/C=C/C=C/C=C/C=C/C=C/[C@H](O[C@@H]2O[C@H](C)[C@@H](O)[C@H](N)[C@@H]2O)C[C@@H]2O[C@](O)(C[C@@H](O)C[C@@H](O)[C@H](O)CC[C@@H](O)C[C@@H](O)CC(=O)O[C@H]1C)C[C@H](O)[C@H]2C(=O)O [amphotericin B] |  |  | IC50 [2]: 300 nM
CCN(CC)CCCC(C)Nc1ccnc2cc(Cl)ccc12 (stereo not drawn) [chloroquine] |  |  | IC50 [3]: 100 nM; IC50 (P. falciparum (W2 clone)): 500 nM
